Usually Km stands for the concentration of substrate that gives half-maximal velocity. Broadly, the IC50 is the concentration at which inhibition is half-maximal.

The values below come from US20070248543A1 (ZGene A/S, priority 2004, published 2007).

Values joined by “and” are separate entries in the source; they are usually repeats but may differ in a detail not shown here. Identical values can stand only once. Like-named read-outs stand apart in the source and are kept apart here.

In experiment [1] the test system is deoxyribonucleoside kinases in MCF-7 cell crude extract. Briefly: Deoxyribonucleoside kinase activity in crude extracts of MCF-7 cells. It is filed as biochemical, human. The settings on record: substrate at 200 μM; triplicates, mean with standard deviation. The procedure: Cells were submitted to brief sonication in extraction buffer (50 mM Tris/HCl pH 7.5, 1 mM DTT, 10% (v/v) glycerol, 1% (v/v) Triton X-100, protease inhibitor cocktail (CompleteTM from Roche Diagnostics). […] App. 20 μg extracts were used in the assays. The assay was done as described by Munch-Petersen et al. [Munch-Petersen, B., Knecht, W., Lenz, […]: Functional expression of a multisubstrate deoxyribonucleoside kinase from Drosophila melanogaster and its C-terminal deletion mutants; J.Biol.Chem. 2000 275 6673-6679].

For a further experiment, the system named is GgdCK1. In words: Steady state kinetics of purified recombinant GgdCK1. It is filed as biochemical, Gallus gallus. The procedure: (§1) Purification of the Recombinant Enzymes. Transformants (KY895 cells transfected with PZG469 (GgcCK1) and PZG657 (GgdCK2)) were grown in LB medium containing […] ampicillin to A600 0.5-0.6, and the expression was induced with […] IPTG for 4 h at 25° C. […] The cells were homogenized using a French Press, subjected to centrifugation at 12,000×g for 30 minutes (4° C.), filtered through a […] Whatman glass microfiber filter and a […] cellulose acetate filter, and loaded onto the column (2 ml column packed with Glutathione-Sepharose 4 FF, Pharmacia) equilibrated in binding buffer A. Unbound material was removed by washing with 10 column volumes of buffer A. Subsequently the column was washed with 5 ml buffer A containing 10 mM ATP/MgCl2, and incubated for 1 h at room temperature and then 30 min at 4° C. to remove strongly bound contaminating proteins. Afterwards the column was washed again with 10 ml of buffer A and 2 ml of thrombin (50 U/ml) solution were applied on the column. The column was gently shaken overnight at 4° C. to cleave the recombinant protein from the GST-tag. Pure protein was eluted from the column in buffer A. Uncleaved fusion protein was eluted with buffer B (50 mM Tris-HCl pH 8, 10% glycerol, 0,1 % Triton X-100, 10 mM gluthatione reduced). Before storage of enzyme-containing fractions at −80° C., glycerol, Triton X-100, and dithiothreitol were added to 8%, 1% and 1 mM, respectively. Proteins were analyzed on Agilent 2100 Bioanalyzer using Protein Assay Chips.
Enzyme Assays. Bacteria or cell lines were grown as described, harvested and stored at −80° C. until activity testing. Cells were submitted to brief sonication in extraction buffer (50 mM Tris/HCl pH 7.5, 1 mM DTT, 10% (v/v) glycerol, 1% (v/v) Triton X-100, protease inhibitor cocktail Complete™ from Roche Diagnostics). Deoxyribonucleoside kinase activities were determined by initial velocity measurements based on four time samples by the DE-81 filter paper assay using tritium-labelled nucleoside substrates. App. 20 μg extracts were used in the assays. […] One unit of deoxyribonucleoside kinase activity is defined as 1 μmol of the corresponding monophosphate formed per minute. The obtained data were fitted to the Michaelis-Menten equation v=Vmax·[S]/(Km+[S]).

The test system of experiment [2] is deoxyribonucleoside kinases in DT 40 chicken cell line crude extract. In words: Deoxyribonucleoside kinase activity in crude extracts of DT 40 cells (DE-81 filter paper assay). The settings on record: substrate at 200 μM; triplicates, mean with standard deviation. Format: biochemical. The procedure: Deoxribonucleoside kinase activities in DT 40 chicken cell line DT 40 cells were grown in RPMI-1640 medium (Gibco) supplemented with 10% foetal calf serum, 1% chicken serum, 2 mM L-glutamine, 10 uM mercaptoethanol and penicillin-streptomycin mixture […], harvested and stored at −80° C. until activity testing. Cells were submitted to brief sonication in extraction buffer (50 mM Tris/HCl pH 7.5, 1 mM DTT, 10% (v/v) glycerol, 1% (v/v) Triton X-100, protease inhibitor cocktail (Complete™ from Roche Diagnostics). Deoxyribonucleoside kinase activities were determined in the DT 40 extracts by initial velocity measurements based on four time samples by the DE-81 filter paper assay using tritium-labelled nucleoside substrates. App. 20 μg extracts were used in the assays. The assay was done as described by Munch-Petersen et al. [Munch-Petersen, B., Knecht, W., Lenz, C., Sondergaard, L. & Piskur, J: Functional expression of a multisubstrate deoxyribonucleoside kinase from Drosophila melanogaster and its C-terminal deletion mutants; J.Biol.Chem. 2000 275 6673-6679].

Experiment [3] relates to deoxyribonucleoside kinase expressed in E. coli TOP10 extracts. Briefly: Deoxyribonucleoside kinase activity in extracts of transformed TOP10 cells. Format: biochemical. The settings on record: approximate.
A further experiment has as its target T1, human dGK (Homo sapiens, UniProt Q16854).
T1 sequence (Q16854 40-277): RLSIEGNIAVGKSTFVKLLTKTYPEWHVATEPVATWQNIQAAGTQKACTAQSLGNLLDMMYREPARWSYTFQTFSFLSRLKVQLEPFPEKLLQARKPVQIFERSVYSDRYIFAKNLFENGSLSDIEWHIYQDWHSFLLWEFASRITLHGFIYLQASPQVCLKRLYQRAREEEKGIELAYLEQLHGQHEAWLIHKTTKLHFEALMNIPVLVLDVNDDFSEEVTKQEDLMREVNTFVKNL
The following applies: Zhu et al. 1998; cited from earlier work.

The target in the next experiment is HsdCK (Homo sapiens, UniProt P27707). The following applies: cited from earlier work; for Kcat / Vmax: literature data.
Sequence of HsdCK (P27707 whole entry): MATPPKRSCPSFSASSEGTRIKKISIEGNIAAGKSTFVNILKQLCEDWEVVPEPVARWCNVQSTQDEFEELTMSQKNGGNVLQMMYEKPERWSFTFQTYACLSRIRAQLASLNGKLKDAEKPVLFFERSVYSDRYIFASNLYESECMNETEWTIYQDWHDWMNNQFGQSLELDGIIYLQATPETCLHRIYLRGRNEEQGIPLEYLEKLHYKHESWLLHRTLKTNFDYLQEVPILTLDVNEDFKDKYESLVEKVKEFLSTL
In experiment [4] the test system is MCF-7 (breast cancer cell line). In words: Cell proliferation assay (XTT cytotoxicity) of retrovirus-transduced MCF-7 cells. It is filed as cell-based. The settings on record: Homo sapiens, MCF7, read-out: IC50 value of ara-G, MCF-7 parental cell line. The procedure: HE 293 T packaging cells (ATCC CRL-11268) were cultured at 37° C. in OPTIMEM 1 medium (Life Technologies, Inc.) The constructed pLCXSN plasmid vector was transfected into the packaging cells using LipofectAMINE PLUS (Life Technologies, Inc.) according to the protocol provided by the supplier. The medium from the transfected cells was collected 48 hours after transfection, filtered through a 0.45 µm filter, pelleted by ultracentrifugation (50.000×g, 90 minutes at 4° C.) and dissolved in DMEM (Cambrex, Blo Whittaker Cat. No. 12-741-F).
The virus containing medium was subsequently used to transduce the cancer cell lines with a MOI of 5. […]
Cells were plated at densities range of 1.500-3.500 cells/well in 96-well plates coated with Poly-L-lysine (Sigma Cat. No. P6282) Gemcitabine (obtained from Orifarm A/S—DK) was added after 24 hours of incubation at 37° C., 5% CO2, and the medium containing the nucleoside analog. […] The IC50 value of the investigated drug/compound was calculated as the mean of these experiments using SigmaPlot® (SPSS Science, Dyrberg Trading—DK).
The sensitivity of the untransduced cells, and of the cells transduced with either the retroviral vector alone ore the vector containing chicken kinases for Gemcitabine and Ara-G was determined.
(Tetrazolium dyes change colour on reduction, which living cells bring about.)

In another experiment the target is GgdCK2 (Gallus gallus, UniProt Q5ZJM7). In words: Steady state kinetics of purified recombinant GgdCK2. The procedure:
as §1
Enzyme Assays. Bacteria or cell lines were grown as described, harvested and stored at −80° C. until activity testing. Cells were submitted to brief sonication in extraction buffer (50 mM Tris/HCl pH 7.5, 1 mM DTT, 10% (v/v) glycerol, 1% (v/v) Triton X-100, protease inhibitor cocktail Complete™ from Roche Diagnostics). Deoxyribonucleoside kinase activities were determined by initial velocity measurements based on four time samples by the DE-81 filter paper assay using tritium-labelled nucleoside substrates. App. 20 μg extracts were used in the assays. […]

[5] abbreviates: data from Bohman 1988 and Habteyesus 1991, read-out: Km.

Sequence of GgdCK2 (Q5ZJM7 whole entry): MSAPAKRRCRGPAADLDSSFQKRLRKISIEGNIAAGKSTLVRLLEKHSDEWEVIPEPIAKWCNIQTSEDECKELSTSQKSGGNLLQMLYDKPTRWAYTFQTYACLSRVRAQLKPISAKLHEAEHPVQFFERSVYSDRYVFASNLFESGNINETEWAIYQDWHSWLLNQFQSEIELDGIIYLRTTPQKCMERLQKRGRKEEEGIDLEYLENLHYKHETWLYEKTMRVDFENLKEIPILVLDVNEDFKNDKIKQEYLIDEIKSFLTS

Consider `Nc1ccn([C@H]2C[C@H](O)[C@@H](CO)O2)c(=O)n1` [dCyd, deoxycytidine], for which, in experiment [1], the “Deoxyribonucleoside kinase activity in crude extract of MCF-7 cells” value is 0.01 ± 0.00 mU/mg. Also, in the experiment with GgdCK1, the Kcat stood at 0.30 s⁻¹, the Km stood at 4.8 µM and the Vmax came out at 589 ± 34 nm/min/mg. Further, the “Deoxyribonucleoside kinase activity in crude extract of DT 40 cells” value in experiment [2] amounted to 0.09 ± 0.01 mU/mg.
As to `Nc1nc(Cl)nc2c1ncn2[C@H]1C[C@H](O)[C@@H](CO)O1` [CdA, 2-chloro-2′-deoxyadenosine], in the experiment with GgdCK1, the Kcat stood at 0.64 s⁻¹, the Km stood at 3.3 ± 0.4 µM and the Vmax came to 1273 ± 38 nm/min/mg.
In experiment [3], “GgdCK1: Gallus gallus deoxycytidine kinase 1, 257 amino acid residues, SEQ ID No. 2” showed a dCyd phosphorylation efficiency of around 8 mU.
For `Nc1nc2c(ncn2[C@H]2C[C@H](O)[C@@H](CO)O2)c(=O)[nH]1` [dGuo, deoxyguanosine], the “Deoxyribonucleoside kinase activity in crude extract of MCF-7 cells” value in experiment [1] is reported as 0.01 ± 0.00 mU/mg. The figures for the Kcat with GgdCK1 and on HsdCK were 0.20 s⁻¹ and 0.33 s⁻¹, respectively. Also, the Km with GgdCK1 was 61.8 ± 11.1 µM; at human dGK, 7.6 µM; at HsdCK (setting [5]) it was 100 µM. The Vmax with GgdCK1 is recorded as 394 ± 37 nm/min/mg; on HsdCK, 600 nm/min/mg. In addition, the “Deoxyribonucleoside kinase activity in crude extract of DT 40 cells” value in experiment [2] is listed as 0.09 ± 0.00 mU/mg.
As for `Nc1nc2c(ncn2[C@@H]2O[C@H](CO)[C@@H](O)[C@@H]2O)c(=O)[nH]1` [ara-G, 9-beta-D-arabinofuranosylguanine], at human dGK, the Km is 8 µM and the “relative phosphorylation higher by recombinant human dGK than by recombinant human dCK” value is 76 times. In addition, in experiment [4], the half-inhibitory concentration (IC50) was 1.58 ± 0.158 mM.
For `Cc1cn([C@H]2C[C@H](O)[C@@H](CO)O2)c(=O)[nH]c1=O` [dThd, thymidine], the “Deoxyribonucleoside kinase activity in crude extract of MCF-7 cells” value in experiment [1] came to 0.07 ± 0.00 mU/mg. In addition, the “Deoxyribonucleoside kinase activity in crude extract of DT 40 cells” value in experiment [2] came to 0.1 ± 0.03 mU/mg.
As to `Nc1nc(F)nc2c1ncn2[C@@H]1O[C@H](CO)[C@@H](O)[C@@H]1O` [F-araA, 2-Fluoroadenine 9-beta-D-Arabinofuranoside], the Km at HsdCK (data from Bohman 1988 and Habteyesus 1991) was 200 µM.
Regarding `Nc1ncnc2c1ncn2[C@H]1C[C@H](O)[C@@H](CO)O1` [dAdo, deoxyadenosine], the “Deoxyribonucleoside kinase activity in crude extract of MCF-7 cells” value in experiment [1] turned out to be 0.05 ± 0.00 mU/mg. The Michaelis-Menten constant (Km) in the experiment on GgdCK1 is 79 µM and 82 µM. The “Deoxyribonucleoside kinase activity in crude extract of DT 40 cells” value in experiment [2] is reported as 0.1 ± 0.01 mU/mg.
In the case of `Nc1ccn([C@@H]2O[C@H](CO)[C@@H](O)[C@@H]2O)c(=O)n1` [araC, cytidine-arabinoside], in the experiment on GgdCK1, the Kcat was 0.44 s⁻¹, the Km is 15.3 ± 2.3 µM and the Vmax stood at 878 ± 33 nm/min/mg. At GgdCK2, the Kcat stood at 0.34 s⁻¹, the Km turned out to be 1.47 ± 0.664 mM and the Vmax came to 649 ± 267 nm/min/mg.
`Nc1ccn([C@@H]2O[C@H](CO)[C@@H](O)C2(F)F)c(=O)n1` [Gemcitabine, 2′,2′-difluorodeoxycytidine]: the values for the Kcat in the experiment with GgdCK1 and on HsdCK were 1.37 s⁻¹ and 0.05 s⁻¹, respectively. In addition, the Michaelis constant (Km) in the experiment on GgdCK1 was 6.3 ± 0.5 µM; at HsdCK (setting [5]) it was 60 µM. Moreover, the figures for the Vmax with GgdCK1 and at HsdCK were 2712 ± 357 nm/min/mg and 100 nm/min/mg, respectively.
